Tests used:
[1] = biological target: T1, CD73 on U138 neuroglioma cells (Homo sapiens, UniProt P21589); assay: Inhibition of Ecto-5′-Nucleotidase Activity in U138 Neuroglioma Cells (Assay 2); type: cell-based; details: 50 μM CMP, 2 hr at 37° C., malachite green readout, read-out: Assay 2: IC50, inhibition of ecto-5′-nucleotidase activity in U138 neuroglioma cells
T1 construct: U138 neuroglioma cells, which express CD73 on their surface; endogenous in cells; host or cells: U138 neuroglioma cells (ATCC)
T1 sequence (P21589 27-549): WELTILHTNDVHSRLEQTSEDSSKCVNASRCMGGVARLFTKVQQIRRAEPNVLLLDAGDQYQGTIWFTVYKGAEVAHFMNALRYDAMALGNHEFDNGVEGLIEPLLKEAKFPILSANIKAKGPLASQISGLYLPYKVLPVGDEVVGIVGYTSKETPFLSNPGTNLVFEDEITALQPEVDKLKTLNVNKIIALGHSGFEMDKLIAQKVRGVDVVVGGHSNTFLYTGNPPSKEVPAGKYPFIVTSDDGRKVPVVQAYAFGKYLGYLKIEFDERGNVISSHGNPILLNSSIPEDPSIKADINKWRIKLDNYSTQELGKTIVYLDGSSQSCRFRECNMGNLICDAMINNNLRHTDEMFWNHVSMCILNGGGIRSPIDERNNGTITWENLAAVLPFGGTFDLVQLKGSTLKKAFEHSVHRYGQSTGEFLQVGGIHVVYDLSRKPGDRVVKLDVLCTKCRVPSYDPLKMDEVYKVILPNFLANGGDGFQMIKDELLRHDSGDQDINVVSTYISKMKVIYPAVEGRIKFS
Experimental: Inhibition of Ecto-5′-Nucleotidase Activity in U138 Neuroglioma Cells (Assay 2)
U138 cells were obtained from the American Type Culture Collection (ATCC) (Manassas, Va.), and cultured in complete growth media (DMEM, 10% FBS, 1 mM L-glutamine, 100 U penicillin-streptomycin) at 37° C., 5% CO2. The day before the experiment, cells were seeded at 2,500 cells/well in 100 μL of complete media into 96-well plates. Cells were washed twice with 200 μL of assay buffer (20 mM HEPES, pH 7.4, 137 mM NaCl, 5.4 mM KCl, 1.3 mM CaCl2, 4.2 mM NaHCO3, 1 mg/mL glucose) to remove residual inorganic phosphate. After washing, assays contained serial dilutions of test compounds and 50 μM of cytidine-5′-monophosphate (CMP) in a total volume of 200 μL of assay buffer, with a final DMSO concentration ≤0.1%. After 2 hr at 37° C., 5% CO2, 100 μL of supernatant was removed from the cells and the concentration of inorganic phosphate was determined using malachite green reagent. IC50 values for test compounds were determined from nonlinear regression fits of the data using XLfit (IDBS).

human CD73 = biological target: T2, human CD73 (Homo sapiens, UniProt P21589); assay: Inhibition of 5′-Nucleotidase Activity of CD73 (Assay 1); type: biochemical; details: human CD73 4 ng/ml, 50 μM CMP, 20 min at RT, malachite green readout; read-out: Assay 1: IC50, inhibition of 5′-nucleotidase activity of CD73
T2 construct: purchased R&D Systems 5795-EN-010
T2 sequence (P21589 27-549): T1 sequence (P21589 27-549)
How it was run: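 Human CD73 (4 ng/ml final) was incubated with 50 μM CMP in 25 mM Tris-HCl pH 7.4, 0.005% Brij-35 for 20 min at RT. Reactions were stopped with malachite green reagent and absorbance was read at 620 nm. IC50 came from a 4-parameter logistic fit.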

IC50 [1] [µM] | IC50 (human CD73) [µM] | Structure (SMILES)
> 1 | 0.1 to 1 | CCOC(=O)[C@@H](OC[C@H]1O[C@@H](n2cnc3c(N)nc(-c4ncco4)nc32)[C@H](O)[C@@H]1O)P(=O)(O)O (single isomer, unassigned) [Example 49a]
0.1 to 1 | 0.1 to 1 | CCOC(=O)[C@@H](OC[C@H]1O[C@@H](n2cnc3c(N)nc(C#N)nc32)[C@H](O)[C@@H]1O)P(=O)(O)O (single isomer, unassigned) [Example 45a]
0.1 to 1 | < 0.1 | Nc1nc(I)nc2c1ncn2[C@@H]1O[C@H](CO[C@@H](C(=O)O)P(=O)(O)O)[C@@H](O)[C@H]1O [Example 59a, (R)-2-(((2R,3S,4R,5R)-5-(6-amino-2-iodo-9H-purin-9-yl)-3,4-dihydroxytetrahydrofuran-2-yl)methoxy)-2-phosphonoacetic Acid]
0.1 to 1 | 0.1 to 1 | CCOC(=O)[C@@H](OC[C@H]1O[C@@H](n2cnc3c(NC)nc(Cl)nc32)[C@H](O)[C@@H]1O)P(=O)(O)O (single isomer, unassigned) [Example 23a]
> 1 | 0.1 to 1 | CCOC(=O)[C@H](OC[C@H]1O[C@@H](n2cnc3c(N)nc(F)nc32)[C@H](O)[C@@H]1O)P(=O)(O)O (single isomer, unassigned) [Example 52a]
< 0.1 | 0.1 to 1 | CCNC(=O)[C@@H](OC[C@H]1O[C@@H](n2cnc3c(N)nc(Cl)nc32)[C@H](O)[C@@H]1O)P(=O)(O)O (single isomer, unassigned) [Example 18a]
> 1 | 0.1 to 1 | COc1nc(OC)c2ncn([C@@H]3O[C@H](COC(C(=O)O)P(=O)(O)O)[C@@H](O)[C@H]3O)c2n1 (stereo partly drawn) [Example 33a, 2-(((2R,3S,4R,5R)-5-(2,6-dimethoxy-9H-purin-9-yl)-3,4-dihydroxytetrahydrofuran-2-yl)methoxy)-2-phosphonoacetic acid]

Further lines, the compound ahead of its results:

Structure (SMILES) | IC50 [1] [µM] | IC50 (human CD73) [µM]
Nc1nc(Cl)nc2c1ncn2[C@@H]1O[C@H](COC(Cc2ccc(Cl)cc2)(C(=O)O)C(=O)O)[C@@H](O)[C@H]1O [Example 47, 2-(((2R,3S,4R,5R)-5-(6-amino-2-chloro-9H-purin-9-yl)-3,4-dihydroxytetrahydrofuran-2-yl)methoxy)-2-(4-chlorobenzyl)malonic acid] | < 0.1 | < 0.1
O=C(O)C(OC[C@H]1O[C@@H](n2cnc3c(N[C@@H]4CCOC4)nc(Cl)nc32)[C@H](O)[C@@H]1O)C(=O)O [Example 69, (R)-2-(((2R,3S,4R,5R)-5-(2-chloro-6-(((R)-tetrahydrofuran-3-yl)amino)-9H-purin-9-yl)-3,4-dihydroxytetrahydrofuran-2-yl)methoxy)malonic Acid] | > 1 | 0.1 to 1
CCOC(=O)[C@H](OC[C@H]1O[C@@H](n2cnc3c(NC)nc(Cl)nc32)[C@H](O)[C@@H]1O)P(=O)(O)O (single isomer, unassigned) [Example 23] | < 0.1 | < 0.1
COc1nc(OC)c2ncn([C@@H]3O[C@H](COC(C(=O)OC(C)(C)C)P(=O)(O)O)[C@@H](O)[C@H]3O)c2n1 (stereo partly drawn) [Example 33, (2-(tert-butoxy)-1-(((2R,3S,4R,5R)-5-(2,6-dimethoxy-9H-purin-9-yl)-3,4-dihydroxytetrahydrofuran-2-yl)methoxy)-2-oxoethyl)phosphonic Acid] | 0.1 to 1 | 0.1 to 1
CCOC(=O)[C@H](OC[C@H]1O[C@@H](n2cnc3c(N)nc(Cc4ccccc4)nc32)[C@H](O)[C@@H]1O)P(=O)(O)O (single isomer, unassigned) [Example 39] | 0.1 to 1 | < 0.1
CCOC(=O)[C@H](OC[C@H]1O[C@@H](n2cnc3c(N)nc(-c4cc(F)cc(F)c4)nc32)[C@H](O)[C@@H]1O)P(=O)(O)O (single isomer, unassigned) [Example 41] | > 1 | 0.1 to 1
O=C(O)C(OC[C@H]1O[C@@H](n2cnc3c(Nc4ccccc4)ncnc32)[C@H](O)[C@@H]1O)P(=O)(O)O (stereo partly drawn) [Example 65, 2-(((2R,3S,4R,5R)-3,4-dihydroxy-5-(6-(phenylamino)-9H-purin-9-yl)tetrahydrofuran-2-yl)methoxy)-2-phosphonoacetic acid] | 0.1 to 1 | 0.1 to 1
CCOC(=O)C(OC[C@H]1C[C@@H](n2nnc3c(NC[C@H]4CCOC4)nc(Cl)nc32)[C@H](O)[C@@H]1O)P(=O)(O)O (stereo partly drawn) [Example 89, (1-(((1R,2R,3S,4R)-4-(5-chloro-7-((((R)-tetrahydrofuran-3-yl)methyl)amino)-3H-[1,2,3]triazolo[4,5-d]pyrimidin-3-yl)-2,3-dihydroxycyclopentyl)methoxy)-2-ethoxy-2-oxoethyl)phosphonic Acid] | < 0.1 | < 0.1
Nc1nc(Cl)nc2c1ncn2[C@@H]1O[C@H](CO[C@@H](C(=O)OCc2ccccc2)P(=O)(O)O)[C@@H](O)[C@H]1O (single isomer, unassigned) [Example 16] | < 0.1 | < 0.1
CC(C)(C)OC(=O)[C@H](OC[C@H]1O[C@@H](n2cnc3c(N)nc(C#N)nc32)[C@H](O)[C@@H]1O)P(=O)(O)O [Example 54a, ((R)-1-(((2R,3S,4R,5R)-5-(6-amino-2-cyano-9H-purin-9-yl)-3,4-dihydroxytetrahydrofuran-2-yl)methoxy)-2-(tert-butoxy)-2-oxoethyl)phosphonic Acid] | > 1 | 0.1 to 1
CC(C)(C)NC(=O)[C@H](OC[C@H]1O[C@@H](n2cnc3c(N)nc(Cl)nc32)[C@H](O)[C@@H]1O)P(=O)(O)O (single isomer, unassigned) [Example 19] | < 0.1 | < 0.1
CC(C)COC(=O)[C@@H](OC[C@H]1O[C@@H](n2cnc3c(N)nc(Cl)nc32)[C@H](O)[C@@H]1O)P(=O)(O)O (single isomer, unassigned) [Example 14a] | 0.1 to 1 | 0.1 to 1
CCOC(=O)[C@H](OC[C@H]1O[C@@H](n2cnc3c(N)nc(C4CC4)nc32)[C@H](O)[C@@H]1O)P(=O)(O)O (single isomer, unassigned) [Example 50] | > 1 | 0.1 to 1
CCOC(=O)C(OC[C@H]1C[C@@H](n2nnc3c(N[C@@H]4CCOC4)nc(Cl)nc32)[C@H](O)[C@@H]1O)P(=O)(O)O (stereo partly drawn) [Example 90, (1-(((1R,2R,3S,4R)-4-(5-chloro-7-(((R)-tetrahydrofuran-3-yl)amino)-3H-[1,2,3]triazolo[4,5-d]pyrimidin-3-yl)-2,3-dihydroxycyclopentyl)methoxy)-2-ethoxy-2-oxoethyl)phosphonic Acid] | < 0.1 | < 0.1
Nc1nc(Cl)nc2c1ncn2[C@@H]1O[C@H](COC(CC2CC2)(C(=O)O)C(=O)O)[C@@H](O)[C@H]1O [Example 98, 2-(((2R,3S,4R,5R)-5-(6-amino-2-chloro-9H-purin-9-yl)-3,4-dihydroxytetrahydrofuran-2-yl)methoxy)-2-(cyclopropylmethyl)malonic acid] | < 0.1 | < 0.1
CCOC(=O)C(OC[C@H]1O[C@@H](n2cnc3c(N)nc(SC)nc32)[C@H](O)[C@@H]1O)P(=O)(O)O (stereo partly drawn) [Example 43, (1-(((2R,3S,4R,5R)-5-(6-amino-2-(methylthio)-9H-purin-9-yl)-3,4-dihydroxytetrahydrofuran-2-yl)methoxy)-2-ethoxy-2-oxoethyl)phosphonic Acid] | > 1 | 0.1 to 1
CCNC(=O)[C@H](OC[C@H]1O[C@@H](n2cnc3c(NCC)nc(Cl)nc32)[C@H](O)[C@@H]1O)P(=O)(O)O (single isomer, unassigned) [Example 34] | 0.1 to 1 | < 0.1
CCOC(=O)[C@@](C)(OC[C@H]1O[C@@H](n2cnc3c(N)nc(Cl)nc32)[C@H](O)[C@@H]1O)P(=O)(O)O (single isomer, unassigned) [Example 9a] | 0.1 to 1 | 0.1 to 1
